In article PMC10730852 (Communications Biology, 2023):
“And” between values parts separate entries of the source, which are not always exact repeats. Equal values may be shown once.

Experiments:
Cph001 [1] = test: Coupled enzyme assay and Michaelis-Menten kinetics of Cph001; format: biochemical, Streptosporangium roseum; set-up: initial velocity, Figure 3c iii, Triplicate: unit not given here; settings: for initial velocity, Figure 3c iii, Triplicate: 20 mM CMN IIA; for phosphorylation by Cph001 in couple enzyme assay: 2 mM antibiotic substrate, ATP as phosphate donor, absorbance at 340 nm
Description: The phosphorylation reaction was measured by a coupled enzyme assay as following. […] The reactions were mixed well in a final volume of 200 μL in 96-well plates. The Cph001 activity was assayed by determining the oxidation of NADH at 340 nm. The reaction buffer and enzyme concentration of the Cph reaction was followed by previous study. The 340 nm absorbance changes were detected at 30 °C for every 1 min at a time in 15 min on an EPOCH Microplate Reader (BioTek). All reactions were carried out in triplicate.
The initial velocity data were plotted against substrate concentrations and fit the Michaelis-Menten equation. The Km and Vmax values were calculated based on the Michaelis-Menten equation. GraphPad Prism was used for statistical data analysis. All reactions were carried out in triplicate.

[2] = system: E. coli/pET-22b (Control); test: Disk diffusion assay; format: cell-based, E. coli BL21 Rosetta (DE3); settings: Escherichia coli, 37 °C, 24 hr, read-out: inhibition zones; for zone of inhibition at 12.5 µg/disc: 12.5 μg on disk; for zone of inhibition at 50 µg/disc: 50 μg on disk; for zone of inhibition at 100 µg/disc: 100 μg on disk; for zone of inhibition at 200 µg/disc: 200 μg on disk
Description: The E. coli BL21 Rosetta (DE3) strains containing pET22b, and its carrying cph, cph001, cph002, cph003, aph(3′)-Ia, and mphB plasmids were cultured overnight. The cells, respectively, were then diluted to 0.1 OD600 in molten LB agar with 100 μg/mL ampicillin and 500 μM IPTG for the disk diffusion assay. The cells with ampicillin and IPTG were mixed well with molten LB agar and then poured into 10 cm diameter Petri dishes. […] The Petri dishes were placed in the incubator at 37 °C and the inhibition zones were observed after 24 hr.

Cph = target: Cph; set-up: method as in ACS Chem. Biol. 17, 138, 2022; settings: ITC; ref ACS Chem. Biol. 17, 138, 2022; read-out: KD values for Cph interaction; cited from earlier work
E. coli/cph = test: Disk diffusion assay; format: cell-based, E. coli BL21 Rosetta (DE3); settings: Escherichia coli, 24 h, read-out: inhibition zones
Description: (§1) The E. coli BL21 Rosetta (DE3) strains containing pET22b, and its carrying cph, cph001, cph002, cph003, aph(3′)-Ia, and mphB plasmids were cultured overnight. The cells, respectively, were then diluted to 0.1 OD600 in molten LB agar with 100 μg/mL ampicillin and 500 μM IPTG for the disk diffusion assay. The cells with ampicillin and IPTG were mixed well with molten LB agar and then poured into 10 cm diameter Petri dishes. The 7 mm disks were placed onto the LB agar and gently loaded with varying quantities of CMN IIA, CMN IIB, VIO, Kan, and Ery, ranging from 0 to 200 μg. The Petri dishes were placed in the incubator at 37 °C and the inhibition zones were observed after 24 hr.

E. coli/cph001 = test: Disk diffusion assay; format: cell-based, E. coli BL21 Rosetta (DE3)
Description: as §1

Cph001 [3] = target: T1, Cph001 (Streptosporangium roseum, UniProt D2B3F1); test: Isothermal titration calorimetry (ITC) analysis of Cph001; format: binding
T1 sequence (D2B3F1 1-286): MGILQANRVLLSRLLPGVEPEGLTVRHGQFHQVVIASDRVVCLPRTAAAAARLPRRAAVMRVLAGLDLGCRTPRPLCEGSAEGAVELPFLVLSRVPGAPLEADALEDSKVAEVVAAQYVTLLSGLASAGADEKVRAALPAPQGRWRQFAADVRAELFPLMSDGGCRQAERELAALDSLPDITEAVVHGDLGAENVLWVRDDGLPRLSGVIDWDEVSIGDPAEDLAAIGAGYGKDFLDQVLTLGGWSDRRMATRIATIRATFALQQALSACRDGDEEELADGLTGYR
Description: The integrated heat areas constitute a differential binding curve that was fitted with a standard single-site binding model by Origin 7.

E. coli/mphB = test: Disk diffusion assay; format: cell-based, E. coli BL21 Rosetta (DE3); settings: Escherichia coli, 24 h, read-out: inhibition zones
Description: as §1

[4] = Escherichia coli, 24 h, read-out: inhibition zones

Q: For `Nc1ncnc2c1ncn2C1OC(COP(=O)(O)OP(=O)(O)OP(=O)(O)O)C(O)C1O` (stereo not drawn) [ATP], which “initial velocity, Figure 3c iii, Triplicate” value (“initial velocity” below) (Cph001 [1]; 0.01 mM ATP) is on record?
A: 0.0001332 and 0.000121 and 0.0001197

Q: What about the “initial velocity” value (Cph001 [1]; 0.02 mM ATP) of the same molecule?
A: 0.0001161 and 0.0001344 and 0.0001332

Q: And the “initial velocity” value (Cph001 [1]; 0.05 mM ATP)?
A: 0.0002407 and 0.0001564 and 0.0001833

Q: What about the “initial velocity” value (Cph001 [1]; 0.1 mM ATP) of the same molecule?
A: 0.0002407 and 0.0002053 and 0.0001552

Q: And the “initial velocity” value (Cph001 [1]; 0.2 mM ATP)?
A: 0.0003336 and 0.0003519 and 0.0003385

Q: And the “initial velocity” value (Cph001 [1]; 0.4 mM ATP)?
A: 0.0003201 and 0.0003715 and 0.0003678

Q: And the “initial velocity” value (Cph001 [1]; 0.6 mM ATP)?
A: 0.0004387 and 0.0003983

Q: And the “initial velocity” value (Cph001 [1]; 0.8 mM ATP)?
A: 0.0003825 and 0.0004668 and 0.0004985

Q: What about the “kcat, phosphate donor varied” value (Cph001 [1]; in the presence of saturating CMN IIA (20 mM), mean ± SEM, n = 3) of the same molecule?
A: 0.00967 ± 0.0005 s⁻¹

Q: And the Km (Cph001 [1]; in the presence of saturating CMN IIA (20 mM), mean ± SEM, n = 3, read-out: apparent Km of the phosphate donor)?
A: 70 ± 20 µM

Q: For `C[C@@H]1NC(=O)[C@@H](N)CNC(=O)[C@H](C2CCNC(=N)N2)NC(=O)/C(=C/NC(N)=O)NC(=O)[C@H](CNC(=O)C[C@@H](N)CCCN)NC1=O` (stereo partly drawn) [CMN IIB], which zone of inhibition at 12.5 µg/disc [2] is on record?
A: 17 mm

Q: What about the zone of inhibition at 50 µg/disc [2] of the same molecule?
A: 23 mm

Q: And the zone of inhibition at 100 µg/disc [2]?
A: 25 mm

Q: And the zone of inhibition at 200 µg/disc [2]?
A: 27 mm

Q: What about the Kd (Cph) of the same molecule?
A: 5.48 µM

Q: What about the zone of inhibition at 50 µg/disc (E. coli/cph) of the same molecule?
A: 12 mm

Q: What about the zone of inhibition at 100 µg/disc (E. coli/cph) of the same molecule?
A: 14 mm

Q: And the zone of inhibition at 200 µg/disc (E. coli/cph)?
A: 16 mm

Q: What about the “resistance in disk diffusion assay” value (E. coli/cph001; E. coli harboring cph001) of the same molecule?
A: capable of endowing E. coli with resistance

Q: What about the zone of inhibition at 12.5 µg/disc (E. coli/cph001; [4]) of the same molecule?
A: 11 mm

Q: And the zone of inhibition at 50 µg/disc (E. coli/cph001; [4])?
A: 14 mm

Q: What about the zone of inhibition at 100 µg/disc (E. coli/cph001; [4]) of the same molecule?
A: 16 mm

Q: And the zone of inhibition at 200 µg/disc (E. coli/cph001; [4])?
A: 17.5 mm

Q: And the “phosphorylation by Cph001 in couple enzyme assay” value (Cph001 [1])?
A: incapable of phosphorylating

Q: What about the Kd (Cph001 [3]) of the same molecule?
A: 55.2 ± 4.4 µM

Q: With `CC[C@H]1OC(=O)[C@H](C)[C@@H](O[C@H]2C[C@@](C)(OC)[C@@H](O)[C@H](C)O2)[C@H](C)[C@@H](O[C@@H]2O[C@H](C)C[C@H](N(C)C)[C@H]2O)[C@](C)(O)C[C@@H](C)C(=O)[C@H](C)[C@@H](O)[C@]1(C)O` [Ery, erythromycin] as the molecule, how does the zone of inhibition at 12.5 µg/disc [2] read?
A: 24 mm

Q: And the zone of inhibition at 50 µg/disc [2]?
A: 27 mm

Q: And the zone of inhibition at 100 µg/disc [2]?
A: 29 mm

Q: What about the zone of inhibition at 200 µg/disc [2] of the same molecule?
A: 31 mm

Q: And the zone of inhibition at 12.5 µg/disc (E. coli/mphB)?
A: 15.5 mm

Q: What about the zone of inhibition at 50 µg/disc (E. coli/mphB) of the same molecule?
A: 21.5 mm

Q: And the zone of inhibition at 100 µg/disc (E. coli/mphB)?
A: 23 mm

Q: What about the zone of inhibition at 200 µg/disc (E. coli/mphB) of the same molecule?
A: 24 mm

Q: What about the zone of inhibition at 12.5 µg/disc (E. coli/cph001; [4]) of the same molecule?
A: 23 mm

Q: And the zone of inhibition at 200 µg/disc (E. coli/cph001; [4])?
A: 32 mm

Q: And the “phosphorylation by Cph001 in couple enzyme assay” value (Cph001 [1])?
A: only capable of phosphorylating VIO
